Results as given in US20240050385A1, “METHODS OF TREATING LEPTOMENINGEAL METASTASIS” (MEMORIAL SLOAN-KETTERING CANCER CENTER, priority 2020, published 2024).

Legend:
LCN2 = LCN2 ELISA after recombinant cytokine stimulation; assay type: cell-based; settings: recombinant cytokine added to artificial CSF; PC9, MDA231 or LLC LeptoM cells; ELISA at 48 h
Experimental: FIG. 11A-11E. Proinflammatory cytokines in human CSF. (A) LCN2 was quantified by ELISA in the CSF from patients harboring LM was treated with neutralizing antibody against IL-6 or IL-8 and added to MDA231-LeptoM cells for 12 hours. N=3 in each of two independent experiments. NS=not significant, * indicates p<0.05, ** indicates p<0.01, *** indicates p<0.001 (unpaired t test). Data represent mean±SEM. (B) Evaluation of LCN2 expression by ELISA with the treatment of pro-inflammatory cytokines IL-6, IL-8, IL-1β and TNF in PC9-Par and PC9-LeptoM cells. LCN2 expression was determined by ELISA of conditioned media collected 48 hours after recombinant cytokine stimulation. N=3 in each of two independent experiments. *indicates p<0.05 (unpaired t test). Data represent mean±SEM. (C) LCN2 expression by ELISA 48 h after treatment of MDA-Par and MDA-LeptoM cells with IL-6, IL-8, IL-1β and TNF. LCN2 expression by ELISA in conditioned media for 48 hours after recombinant cytokines stimulation. N=3 in each of two independent experiments. *indicates p<0.05 (unpaired t test). Data represent mean±SEM. (D) LCN2 expression by ELISA 48 h after treatment of LLC-Par and LLC-LeptoM cells with IL-6, IL-1β and TNF. N=3 in each of two independent experiments. * indicates p<0.05 (unpaired t test). Data represent mean±SEM. (E) Visualization of macrophage cells in first two diffusion components. First diffusion component is best matched by Hypoxia as indicated with GSEA es=0.6, fdr=0 and M1 phenotype es=−0.5, fdr=0.11, while second diffusion component is best matched by M2 phenotype es=0.7, fdr=0. MAGIC imputed gene set expression was standardized to zero mean and unit of standard deviation.
Secreted protein detection. Human LCN2 (Abcam, ab215541), Hepcidin (R&D, DHP250), Transferrin (Abcam, ab187391), Ferritin (LSBio, LS-F428-1), IL-6 (R&D, D6050), IL-8 (R&D, D8000C), IL-1β (R&D, DLB50), TNF expression (Abcam, ab181421) in CSF patient samples or cell culture supernatants were measured using ELISA kits according to manufacturer's instructions. […]

[1] = system: LeptoM cells expressing shLCN2; test: Tumor growth in mice injected with LeptoM cells expressing shLCN2, treated with holo-transferrin; assay type: in vivo, mouse; settings: 5 mg/mL holo-transferrin intracisternal every third day, 7 doses
Text: (§1) FIG. 14A-14K. Leptomeningeal metastasis requires iron transporters. (A) Total iron measured by mass spectroscopy in CSF cancer patients with and without LM. Presence of LM is indicated +/−. N=11 cancer patients without LM and n=12 cancer patients with LM. * indicates p<0.05 (unpaired t test). Data represent mean±SEM. (B) LCN2 iron binding assay in patient CSF. Non-LCN2-bound iron [NLBI] and LCN2-bound iron [LBI] was detected in the CSF from cancer patients with or without LM. N=10. **** indicates p<0.0001 (unpaired t test). Data represent mean±SEM. (C) Expression of genes associated with iron transport in parental cells and LeptoM cells by bulk RNA sequencing. N=2 in PC9 cells and n=3 in LeptoM cells. Presented as log 2 fold change in each group with cutoff <20 normalized counts. (D) Tumor growth in mice injected with PC9-LeptoM cells expressing shCtl or shLCN2. Treatment with either vehicle or 5 mg/Ml holo-transferrin (diferric [Tf]) was commenced on day 1 and continued every third day for a total of 7 doses. Left: Histogram represents in vivo BLI imaging post-inoculation at day 21. N=6-8 per group in each of two independent experiments. Right: Representative BLI images. Sh1+Veh vs sh1+Tf, p=0.2087. sh2+Veh vs sh2+Tf, p=0.0604. Data represent mean±SEM. […] Iron measured by colorimetric assay. […] Intracellular iron was determined by colorimetric assay. […]

PC9-LeptoM cells = test: Cell associated iron and viability of PC9-LeptoM cells after knockdown of SLC22A17 or LCN2; assay type: cell-based, human; settings: 100 μg/mL diferric Tf added in vitro
Text: as §1, with “21.” for “21. N=6-8 per group in each of two independent experiments. Right: Representative BLI images. Sh1+Veh vs sh1+Tf, p=0.2087. sh2+Veh vs sh2+Tf, p=0.0604. Data represent mean±SEM.”
Cell Viability Assay. […] The CellTiter-Glo Luminescent Cell Viability Assay (Promega G9241) was used to quantify viable cells in culture according to the manufacturer's protocols. […]

Row | Substance | expression of LCN2 (LCN2) | rescue of LCN2 knockdown by shRNA in vivo (tumor growth, survival) [1] | cell growth after SLC22A17 or LCN2 knockdown (PC9-LeptoM cells) | intracellular iron accumulation after SLC22A17 or LCN2 knockdown (PC9-LeptoM cells)
1 | IL-1β: recombinant IL-1β (R&D) added to culture media | induced expression of LCN2 | – | – | –
2 | IL-6: recombinant IL-6 (R&D) added to culture media | induced expression of LCN2 | – | – | –
3 | IL-8: recombinant IL-8 (R&D) added to culture media | induced expression of LCN2 | – | – | –
4 | transferrin: iron-loaded (diferric) holo-transferrin, Invitria 777TRF029 | – | partially rescued | rescued | rescued
